The target in data set [1] is T1, Muscarinic acetylcholine receptor M4 (Homo sapiens, UniProt P08173).
T1 sequence (P08173 whole entry): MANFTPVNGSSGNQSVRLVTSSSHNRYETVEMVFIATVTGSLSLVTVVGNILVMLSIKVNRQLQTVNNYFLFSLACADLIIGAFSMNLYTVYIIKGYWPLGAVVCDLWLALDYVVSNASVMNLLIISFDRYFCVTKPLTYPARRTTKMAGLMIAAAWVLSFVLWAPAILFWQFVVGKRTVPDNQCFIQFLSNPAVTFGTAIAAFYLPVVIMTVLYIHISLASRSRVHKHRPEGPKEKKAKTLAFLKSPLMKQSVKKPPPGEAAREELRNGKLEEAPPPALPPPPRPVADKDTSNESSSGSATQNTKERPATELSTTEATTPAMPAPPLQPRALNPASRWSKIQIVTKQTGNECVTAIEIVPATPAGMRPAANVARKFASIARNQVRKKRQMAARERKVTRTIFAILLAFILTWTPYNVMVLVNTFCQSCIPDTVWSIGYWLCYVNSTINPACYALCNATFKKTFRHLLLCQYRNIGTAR
As to the kind of experiment: Positive allosteric modulation of human muscarinic M4 receptor expressed in CHO cells co-expressing Gqi5 assessed as increase in acetylcholine-induced calcium mobilization. Format: functional, cell-based.

Data set [2] in a line: Unbound brain-to-plasma concentration ratio in rat. It is filed as ADME, cell-free. Particulars: read-out: K(p,uu,brain); call rule not given here.
A short description of data set [3]: Hepatic clearance in rat. It is filed as ADME. Particulars: in vivo.
The nature of data set [4]: Unbound fraction in rat brain. It is filed as ADME, tissue-based.
Data set [5] can be described thus: Hepatic clearance in human. It is filed as ADME.
The nature of data set [6]: Unbound fraction in human plasma. It is filed as ADME, cell-free.
Data set [7] is described as follows: Unbound fraction in rat plasma. Format: ADME, cell-free.
The nature of data set [8]: Brain to plasma permeability coefficient, Kp of the compound in rat. Format: ADME, cell-free.
Data set [9] deals with T2, Muscarinic acetylcholine receptor M4 (Rattus norvegicus, UniProt P08485).
T2 sequence (P08485 whole entry): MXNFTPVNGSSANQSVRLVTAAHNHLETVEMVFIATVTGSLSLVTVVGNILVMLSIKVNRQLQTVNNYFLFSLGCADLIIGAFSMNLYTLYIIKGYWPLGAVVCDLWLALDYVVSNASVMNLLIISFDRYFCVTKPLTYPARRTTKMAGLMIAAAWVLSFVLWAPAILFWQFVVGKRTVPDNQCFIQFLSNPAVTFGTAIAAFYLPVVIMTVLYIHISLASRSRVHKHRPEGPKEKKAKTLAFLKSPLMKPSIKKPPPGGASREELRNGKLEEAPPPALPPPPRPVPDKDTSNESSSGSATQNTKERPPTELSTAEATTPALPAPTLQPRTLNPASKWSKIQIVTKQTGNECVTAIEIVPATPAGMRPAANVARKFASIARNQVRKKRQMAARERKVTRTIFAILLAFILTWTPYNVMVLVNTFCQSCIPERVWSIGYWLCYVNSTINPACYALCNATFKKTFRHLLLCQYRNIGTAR
As to the kind of experiment: Positive allosteric modulation of rat muscarinic M4 receptor.

Data set [10] is described as follows: Intrinsic clearance in rat microsomes. It is filed as ADME, Microsome.
The nature of data set [11]: Intrinsic clearance in human microsomes. It is filed as ADME, Microsome.

Some results are limits rather than exact numbers.

The text below walks through data of ChEMBL document CHEMBL4609996, “Discovery of a novel 2,3-dimethylimidazo[1,2-a]pyrazine-6-carboxamide M4 positive allosteric modulator (PAM) chemotype” (Bioorg Med Chem Lett, 2020).

The term EC50 denotes the concentration needed to bring the measured effect to its halfway point. As for `COc1cc(N2CC(NC(=O)c3ccc4onc(C)c4c3)C2)c(Cl)cn1`, in [1] (cho), the EC50 result is on record as “Not Active”.

On to `COc1cc(N2CC(NC(=O)c3ccc4sc(C)nc4c3)C2)c(Cl)cn1`, for which, in [1] (cho), the EC50 entry is on record as “Not Active”.

Regarding `Cn1nc2ccc(C(=O)NC3CN(c4cc(Cl)ncc4Cl)C3)cc2c1C(F)(F)F`, in data set [1] (cho), the concentration for a half-maximal effect (EC50) entry is “Not Active”.

As for `CCn1nc2ccc(C(=O)NC3CN(c4cc(Cl)ncc4Cl)C3)cc2c1C`, in data set [1] (cho), the EC50 result was “Not Active”.

Turning to `Cc1nnc2ccc(C(=O)NC3CN(c4cc(Cl)ncc4Cl)C3)cn12`, in data set [1] (read-out: EC50), the EC50 was over 10000 nM.

Take `Cc1nc2ccc(C(=O)NC3CN(c4cc(Cl)ncc4Cl)C3)nn2c1C`: the EC50 result in [1] (cho) is recorded as “Not Active”.

As for `Cn1nc2ccc(C(=O)NC3CN(c4cc(Cl)ncc4Cl)C3)cc2c1C1CC1`, the concentration for a half-maximal effect (EC50) result in [1] (cho) is “Not Active”.

As usually defined, the fraction unbound is the share of the substance not bound to proteins or other matrix. A lower fraction unbound goes with extensive binding. Broadly, the Kp is tissue or fluid exposure divided by exposure in the circulation. As for `Cn1nnc2ccc(C(=O)NC3CN(c4cc(Cl)ncc4Cl)C3)cc21`, the Kp uu in [2] was under 0.11. Besides, the values for the CLH in data set [3] and in data set [5] were 8.7 mL/min/kg and 21 mL/min/kg, respectively. Besides, the unbound share (fraction unbound) in data set [4] amounted to 0.053; in [6], 0.132; in data set [7], 0.024. This compound also showed a Kp in data set [8] of under 0.05.

On to `COc1cc(N2CC(NC(=O)c3ccc4nnc(C)n4c3)C2)c(Cl)cn1`, for which the half-maximal effective concentration (EC50) in [1] (read-out: EC50) was over 10000 nM.

A word on the CLint scaled: it is the capacity of the preparation to metabolise the compound, expressed as a volume cleared per time. Read a low CLint scaled as slow turnover. `Cc1nc2ccc(C(=O)NC3CN(c4cc(Cl)ncc4Cl)C3)cn2c1C` registered an EC50 in [9] of 433 nM. Moreover, the Kp uu in data set [2] turned out to be 0.21. For the same compound, the intrinsic clearance (CLint scaled) turned out to be 130 mL/min/kg in data set [10] and 39 mL/min/kg in data set [11]. Also, the fraction unbound in data set [4] amounted to 0.027; in data set [6], 0.03; in data set [7] it was 0.013. Besides, the Kp in [8] turned out to be 0.1.

The compound `Cc1nc2cnc(C(=O)NC3CN(c4cc(Cl)ncc4Cl)C3)cn2c1C` had a half-maximal effective concentration (EC50) in data set [9] of 233 nM. Also, the Kp uu in data set [2] came to 1.09. Also, the intrinsic metabolic clearance (CLint scaled) is 96 mL/min/kg in data set [10] and 33 mL/min/kg in data set [11]. Moreover, the free fraction (fraction unbound) in data set [4] amounted to 0.034; in [6], 0.04; in data set [7], 0.009. The Kp in data set [8] was determined as 0.29.

As for `COc1cc(N2CC(NC(=O)c3ccc4nn(C)c(C)c4n3)C2)c(Cl)cn1`, the EC50 entry in data set [1] (cho) is on record as “Not Active”.

Compound `Cn1c(C(F)(F)F)nc2ccc(C(=O)NC3CN(c4cc(Cl)ncc4Cl)C3)cc21` registered a 50% effective concentration (EC50) in [9] of 378 nM.

On to `COc1cc(N2CC(NC(=O)c3ccc4nc(C)c(C)n4n3)C2)c(Cl)cn1`, for which the EC50 entry in [1] (cho) is “Not Active”.

Take `Cc1noc2ccc(C(=O)NC3CN(c4cc(Cl)ncc4Cl)C3)cc12`: the EC50 result in data set [1] (cho) is “Not Active”.

For `COc1cc(N2CC(NC(=O)c3ccc4c(c3)c(C)nn4C)C2)c(Cl)cn1`, the 50% effective concentration (EC50) entry in data set [1] (cho) was “Not Active”.

As to `Cc1c2cc(C(=O)NC3CN(c4cc(Cl)ncc4Cl)C3)ccc2nn1C`, the Kp uu in data set [2] turned out to be 0.04. Also, the CLH in data set [3] is 20 mL/min/kg; in data set [5] it was 13 mL/min/kg. For the same compound, the fraction unbound in [4] was determined as 0.032; in [6], 0.043; in data set [7], 0.042. Further, the Kp in data set [8] is 0.05.

For the compound `Cc1c2nc(C(=O)NC3CN(c4cc(Cl)ncc4Cl)C3)ccc2nn1C`, the EC50 entry in data set [1] (cho) was “Not Active”.

`COc1cc(N2CC(NC(=O)c3ccc4snc(C)c4c3)C2)c(Cl)cn1`: the concentration giving a half-maximal response (EC50) result in [1] (cho) was “Not Active”.

For the compound `Cc1nsc2ccc(C(=O)NC3CN(c4cc(Cl)ncc4Cl)C3)cc12`, the half-maximal effective concentration (EC50) entry in data set [1] (cho) is “Not Active”.

Compound `COc1cc(N2CC(NC(=O)c3cn4c(C)c(C)nc4cn3)C2)c(Cl)cn1` displayed an EC50 in data set [9] of 295 nM. For the same compound, in data set [2], the Kp uu was under 1.33. In addition, the intrinsic clearance (CLint scaled) was determined as 83 mL/min/kg in [10] and 25 mL/min/kg in data set [11]. The unbound share (fraction unbound) in data set [4] was 0.021; in data set [6] it was 0.045; in data set [7], 0.017. In addition, the Kp in data set [8] is under 1.08.

Regarding `Cc1nn(C)c2cnc(C(=O)NC3CN(c4cc(Cl)ncc4Cl)C3)cc12`, the Kp uu in data set [2] was under 0.45. Moreover, the CLint scaled amounted to 85 mL/min/kg in data set [10] and 28 mL/min/kg in data set [11]. Moreover, the fraction unbound in data set [4] is 0.021; in data set [6] it was 0.039; in data set [7], 0.011. In data set [8], this compound had a Kp of under 0.24.

In turn, `Cc1c2cc(C(=O)NC3CN(c4cc(Cl)ncc4Cl)C3)ncc2nn1C` had an EC50 in data set [9] of 331 nM. Moreover, the Kp uu in [2] came to 0.41. Also, the intrinsic metabolic clearance (CLint scaled) in [10] was 59 mL/min/kg; in data set [11], 26 mL/min/kg. The fraction unbound in [4] was found to be 0.03; in data set [6], 0.014; in data set [7], 0.022. The Kp in [8] was determined as 0.3.

For the compound `COc1cc(N2CC(NC(=O)c3cc4nn(C)c(C)c4cc3F)C2)c(Cl)cn1`, in [1] (cho), the EC50 entry was “Not Active”.

On to `COc1cc(N2CC(NC(=O)c3cc4c(C)n(C)nc4cn3)C2)c(Cl)cn1`, for which the response in data set [9] was half-maximal at 339 nM (EC50). Also, the Kp uu in data set [2] came out at 0.97. In addition, the results for the CLint scaled in data set [10] and in [11] were 33 mL/min/kg and 28 mL/min/kg, respectively. Moreover, the fraction unbound in data set [4] stood at 0.032; in data set [6] it was 0.017; in [7], 0.022. Moreover, the Kp in data set [8] turned out to be 0.67.

As to `Cc1c2cc(F)c(C(=O)NC3CN(c4cc(Cl)ncc4Cl)C3)cc2nn1C`, the concentration giving a half-maximal response (EC50) result in data set [1] (cho) is reported as “Not Active”.

As for `Cn1nc2ccc(C(=O)NC3CN(c4cc(Cl)ncc4Cl)C3)cc2c1C(F)F`, the EC50 entry in data set [1] (cho) is given as “Not Active”.
